The source of these data is ChEMBL document CHEMBL2177008, “Discovery of benzodiazepine sulfonamide-based bombesin receptor subtype 3 agonists and their unusual chirality” (ACS Med Chem Lett, 2011).

Calls of active or inactive are those of the source.

Data set [1] is described as follows: Oral bioavailability in rhesus monkey. The settings on record: in vivo. It is filed as ADME, organism-based, Macaca mulatta.
In data set [2] the target is T1, Bombesin receptor subtype-3 (Homo sapiens, UniProt P32247).
T1 sequence (P32247 whole entry): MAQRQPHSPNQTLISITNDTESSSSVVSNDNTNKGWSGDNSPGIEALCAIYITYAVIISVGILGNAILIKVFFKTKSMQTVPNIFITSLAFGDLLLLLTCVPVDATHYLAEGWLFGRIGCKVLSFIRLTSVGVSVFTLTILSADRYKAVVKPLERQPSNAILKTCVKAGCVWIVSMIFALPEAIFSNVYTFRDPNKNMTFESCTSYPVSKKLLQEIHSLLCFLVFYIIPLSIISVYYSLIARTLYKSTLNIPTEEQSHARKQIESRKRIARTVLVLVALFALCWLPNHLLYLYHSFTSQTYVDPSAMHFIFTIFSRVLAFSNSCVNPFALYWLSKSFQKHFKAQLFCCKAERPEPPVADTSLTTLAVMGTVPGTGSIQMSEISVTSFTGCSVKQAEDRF
Nature of the data set: Agonist activity at human BRS3 expressed in HEK293 cells expressing aequorin measured for 10 mins by bioluminescence assay.

Data set [3] is described as follows: Displacement of [125I]-[D-Tyr6,beta-Ala11,Phe13,Nle14]-Bombesin(6-14) from rhesus monkey BRS3. Also on record: species or system Macaca mulatta.
The nature of data set [4]: Half life in rhesus monkey. The format is ADME, organism-based, Macaca mulatta. The settings on record: in vivo.
Data set [5] can be described thus: Half life in Sprague-Dawley rat at 1 mg/kg, iv. The format is ADME, organism-based. Set-up: dose 1 mg/kg, route intravenous. The following applies: in vivo.
The nature of data set [6]: Oral bioavailability in Sprague-Dawley rat at 4 mg/kg. It is filed as ADME, organism-based. The following applies: in vivo.
Data set [7] is described as follows: Plasma clearance in Sprague-Dawley rat at 1 mg/kg, iv. The format is ADME, organism-based. Also on record: dose 1 mg/kg, route intravenous.
Data set [8] is described as follows: Inhibition of calcium channel Diltiazem hydrochloride binding site.
Data set [9] is described as follows: Agonist activity at rhesus monkey BRS3. The format is functional, Macaca mulatta.
Another data set has as its target T2, PXR (Homo sapiens, UniProt O75469).
T2 sequence (O75469 whole entry): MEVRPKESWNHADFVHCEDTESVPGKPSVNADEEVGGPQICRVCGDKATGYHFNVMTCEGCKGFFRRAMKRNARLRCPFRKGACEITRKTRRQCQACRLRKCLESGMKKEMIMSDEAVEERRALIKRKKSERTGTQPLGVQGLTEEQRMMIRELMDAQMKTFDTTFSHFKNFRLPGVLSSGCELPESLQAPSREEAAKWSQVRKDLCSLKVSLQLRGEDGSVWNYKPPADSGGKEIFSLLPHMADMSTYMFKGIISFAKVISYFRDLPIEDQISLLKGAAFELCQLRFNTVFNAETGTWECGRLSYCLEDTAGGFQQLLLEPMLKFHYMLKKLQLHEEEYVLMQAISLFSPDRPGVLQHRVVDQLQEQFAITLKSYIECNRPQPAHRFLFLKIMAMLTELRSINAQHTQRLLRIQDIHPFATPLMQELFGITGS
Nature of the data set: Activation of human PXR at 10 uM relative to control. The settings on record: read-out: Activity.

Data set [10] concerns Mus musculus. Nature of the data set: Antiobesity activity in po dosed diet-induced obese wild type C57 mouse assessed as reduction in food intake administered 60 mins prior to dark cycle onset measured after 18 hrs. The format is functional, organism-based.
Data set [11] concerns the target Voltage-gated inwardly rectifying potassium channel KCNH2 (Homo sapiens, UniProt Q12809). Nature of the data set: Inhibition of human ERG.
Data set [12] can be described thus: Displacement of [125I]-[D-Tyr6,beta-Ala11,Phe13,Nle14]-Bombesin(6-14) from dog BRS3. Set-up: species or system Canis lupus familiaris. In general terms: In a radioligand displacement assay an active substance lowers the binding of a labelled ligand.
For the next data set, the species on record is Canis lupus familiaris. Nature of the data set: Agonist activity at dog BRS3 relative to [125I]-[D-Tyr6,beta-Ala11,Phe13,Nle14]-Bombesin(6-14). It is filed as functional.
Data set [13] deals with T3, Bombesin receptor subtype-3 (Mus musculus) (UniProt O54798).
T3 sequence (whole entry): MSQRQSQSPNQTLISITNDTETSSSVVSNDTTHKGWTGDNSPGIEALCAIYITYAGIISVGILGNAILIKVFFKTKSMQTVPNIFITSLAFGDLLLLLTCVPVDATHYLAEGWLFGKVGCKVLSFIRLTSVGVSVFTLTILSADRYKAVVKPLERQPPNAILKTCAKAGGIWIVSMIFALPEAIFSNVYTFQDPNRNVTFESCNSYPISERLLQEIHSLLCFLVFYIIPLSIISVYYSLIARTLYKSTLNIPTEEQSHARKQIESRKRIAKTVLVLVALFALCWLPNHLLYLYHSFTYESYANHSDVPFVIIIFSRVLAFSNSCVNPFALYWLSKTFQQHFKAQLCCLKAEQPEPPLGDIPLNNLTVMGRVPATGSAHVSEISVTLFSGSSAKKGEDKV
Nature of the data set: Agonist activity at mouse BRS3 expressed in HEK293 cells expressing aequorin measured for 30 secs by bioluminescence assay relative to [125I]-[D-Tyr6,beta-Ala11,Phe13,Nle14]-Bombesin(6-14). It is filed as functional, cell-based.

Data set [14] relates to Mus musculus. Nature of the data set: Antiobesity activity in diet-induced obese […] knock-out C57 mouse assessed as reduction in food intake at 3 and 30 mg/kg, po administered 60 mins prior to dark cycle onset measured after 18 hrs. It is filed as functional, organism-based. Also on record: dose 30 mg/kg.
The nature of data set [15]: Agonist activity at dog BRS3. It is filed as functional, Canis lupus familiaris.
Data set [16] addresses T4, Nuclear receptor subfamily 1 group I member 2 (Homo sapiens, UniProt O75469).
T4 sequence (O75469 whole entry): T2 sequence (O75469 whole entry)
Nature of the data set: Activation of human PXR.

Data set [17] relates to Mus musculus. Nature of the data set: Antiobesity activity in po dosed diet-induced obese wild type C57 mouse assessed as body weight loss administered 60 mins prior to dark cycle onset measured after 18 hrs. It is filed as functional, organism-based.
Another data set concerns Rattus norvegicus. Nature of the data set: Dose normalized AUC in Sprague-Dawley rat at 4 mg/kg, po. It is filed as ADME, organism-based. Also on record: dose 4 mg/kg, route oral. The settings on record: in vivo.
The species entered for the next data set is Macaca mulatta. Nature of the data set: Agonist activity at rhesus monkey BRS3 relative to [125I]-[D-Tyr6,beta-Ala11,Phe13,Nle14]-Bombesin(6-14). The format is functional.

Chain of Voltage-gated inwardly rectifying potassium channel KCNH2 (Q12809 whole entry): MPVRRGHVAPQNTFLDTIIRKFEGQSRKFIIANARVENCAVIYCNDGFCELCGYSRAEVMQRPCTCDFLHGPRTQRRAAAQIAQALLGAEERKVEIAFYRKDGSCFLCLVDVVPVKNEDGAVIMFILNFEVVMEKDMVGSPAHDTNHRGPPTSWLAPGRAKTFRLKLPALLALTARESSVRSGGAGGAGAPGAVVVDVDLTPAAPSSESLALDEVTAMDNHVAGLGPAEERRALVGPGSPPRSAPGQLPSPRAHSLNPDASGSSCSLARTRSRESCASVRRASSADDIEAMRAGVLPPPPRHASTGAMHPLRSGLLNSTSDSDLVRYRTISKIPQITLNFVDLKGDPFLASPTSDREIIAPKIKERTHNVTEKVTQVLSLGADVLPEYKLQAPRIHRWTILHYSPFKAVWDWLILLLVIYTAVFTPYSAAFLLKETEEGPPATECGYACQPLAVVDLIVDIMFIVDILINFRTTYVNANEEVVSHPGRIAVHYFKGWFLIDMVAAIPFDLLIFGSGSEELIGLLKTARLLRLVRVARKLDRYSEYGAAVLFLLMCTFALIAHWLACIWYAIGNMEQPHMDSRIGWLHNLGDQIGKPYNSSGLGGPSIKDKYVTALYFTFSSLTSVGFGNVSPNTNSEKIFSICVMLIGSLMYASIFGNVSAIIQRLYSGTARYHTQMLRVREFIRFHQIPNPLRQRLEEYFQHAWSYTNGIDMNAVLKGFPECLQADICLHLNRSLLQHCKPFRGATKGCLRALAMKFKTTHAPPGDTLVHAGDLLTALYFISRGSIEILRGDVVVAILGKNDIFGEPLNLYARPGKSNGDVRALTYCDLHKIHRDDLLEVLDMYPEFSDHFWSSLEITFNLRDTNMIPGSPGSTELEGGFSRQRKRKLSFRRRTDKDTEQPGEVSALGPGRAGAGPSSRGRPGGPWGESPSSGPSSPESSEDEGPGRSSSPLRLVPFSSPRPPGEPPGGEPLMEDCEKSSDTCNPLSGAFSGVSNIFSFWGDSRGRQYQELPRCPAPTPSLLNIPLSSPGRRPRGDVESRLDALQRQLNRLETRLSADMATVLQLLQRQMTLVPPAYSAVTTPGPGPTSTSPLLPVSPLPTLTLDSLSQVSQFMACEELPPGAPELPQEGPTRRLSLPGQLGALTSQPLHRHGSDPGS

As to `Cc1ccc2c(c1C)N(S(=O)(=O)c1ccc(C(C)(C)C)cc1)Cc1ccc(C(F)(F)F)nc1N2`, the bioavailability (commonly the share of a dose that reaches the circulation, judged against a reference dose that is usually intravenous) in [1] was found to be 17%; in data set [6] it was 15%. In addition, the EC50 – broadly, the concentration at which the effect is half-maximal – in [2] was 15 nM; in data set [9], 70 nM; in data set [15], 36 nM; in data set [16] it was 678 nM. The IC50 (usually the point on the concentration scale where inhibition reaches its midpoint) in data set [3] was 3 nM; in [8], > 10000 nM; in data set [11] it was > 10000 nM; in data set [12], 1.6 nM. The half-life (usually the time needed for the level to fall by half in the phase considered) in data set [4] is 1.8 h; in [5], 1.6 h. Moreover, the clearance (as a rule, the rate of elimination divided by the concentration) in data set [7] worked out at 29 mL/min/kg. Besides, the activity at 10 µM at PXR amounted to 42%. Also, the Activity entry in the data set with Mus musculus [10] and with Mus musculus [17] was “Dose-dependent effect” throughout. Moreover, the values for the max activation (in the data set filed under Canis lupus familiaris; in data set [13]; in the data set listed under Macaca mulatta) were 97%, 98% and 97%, respectively. Moreover, in the data set on Mus musculus [14], the Activity result was “inactive”. This molecule also yielded an AUC/dose in the data set on Rattus norvegicus of 0.2 µM·kg·h/mg.
